Results taken from patent US10344002B2, “Compositions and methods for treating metabolic disorders” (NuSirt Sciences, Inc., priority 2016, dated 2019).

How the values were obtained:
C2C12 muscle cells = experiment: Fatty acid oxidation (oxygen consumption rate, Seahorse XF-24) in C2C12 muscle cells; assay type: cell-based; settings: C2C12 muscle cells
Protocol: Cell Culture: C2C12 muscle cells were seeded with 40,000 cells per well on Seahorse tissue culture plates in Dulbecco's modified eagle's medium (DMEM) containing 10% fetal bovine serum (FBS) and antibiotics (1% penicillin-streptomycin) at 37° C. in 5% CO2. After reaching confluency (24 hours), cells were induced to differentiate with DMEM containing 2% Horse Serum for 3 to 4 days until myotubes were fully formed. Cells were then treated with indicated concentration of Compound 2 for 24 hours.
(§1) Compound 2 was dissolved in 100% DMSO to a stock concentration of 100 mM. This stock was further diluted to indicated concentrations in DMEM media.
Fatty acid oxidation: Baseline and palmitate-stimulated oxygen consumption rates were measured with XF-24 analyzer (Seahorse Bioscience (now part of Agilent Technologies), MA, USA). After 24 hour treatment with Compound 2 of differentiated C2C12 muscle cells, cells were washed twice with non-buffered carbonate-free pH 7.4 low glucose (2.5 mM) DMEM containing carnitine (0.5 mM), equilibrated with 600 μl of the same media in a non-CO2 incubator for 45 minutes, and then inserted into the instrument for 15 minutes of further equilibration, followed by O2 consumption measurement. Three successive baseline measures at five-minute intervals were taken prior to injection of palmitate (200 μM final concentration). Sets of three five-minute intervals followed by 10-minute time delay were continued over a 2 to 3 hour period after palmitate injection. The area under the curve of 02 consumption change from baseline for each sample was then calculated and used for subsequent analysis. Data are represented as mean±SD for each treatment group.

3T3L1 adipocytes = experiment: Lipid accumulation (Oil Red Staining) in 3T3L1 adipocytes; assay type: cell-based; settings: 72 hours; for Oil Red absorbance (FIG. 11): control approximately 0.66
Protocol: Cell Culture: 3T3L1 adipocytes were seeded with 80,000 cells per well on 24-well tissue culture plates in high glucose (25 mM) DMEM containing 10% FBS and antibiotics. After reaching confluency (3 days), cells were induced to differentiate with a standard differentiation media (DM2-L1, Zen-Bio Inc., NC) for 3 days, then cells were maintained in DMEM (10% FBS, 1% penicillin-streptomycin) for another 8 days to induce lipid accumulation. Cells were then treated with indicated concentration of Compound 2 for 72 hours.
as §1
(§2) Lipid accumulation (Oil Red Staining): 3T3L1 adipocytes were seeded and treated as described above. After 72 hours of treatment with Compound 2, lipid accumulation in adipocytes was measured via Oil Red Staining. Cells were washed with phosphate buffered saline (PBS) once, then cells were fixated with 10% formalin for 1 hour. After removal of the formalin, cells were washed with ddH2O twice, then washed with 60% isopropanol. Cells were dried completely. Cells were stained with Oil Red working solution (˜5 mM) for 25 minutes, then immediately washed with ddH2O four times, then dried completely again. Oil Red dye was eluted with 100% isopropanol and absorbance was read at 500 nm. Unstained cells plus isopropanol was used as a blank and subtracted from all readings. Data are represented as mean±SEM for each treatment group.

C. elegans = experiment: Lipid accumulation (Oil Red Staining) in C. elegans; assay type: in vivo; settings: for lipid accumulation, fold change of control (FIG. 12): 3 days, absorbance normalized to worm number
Protocol: C. elegans culture: Synchronized L1 wild-type worms were transferred to NGM agar plates with the following treatments until adulthood (3 days): 1. control NGM plates, 2. NGM plate with 10 nM Compound 2 added to E. coli suspension, 3. NGM plate with 100 nM Compound 2 added to E. coli suspension.
Lipid accumulation (Oil Red Staining): Worms were washed off the plate with 2×5 ml PBS and collected in centrifuge tubes. The tubes were centrifuged at 1000 g for 30 seconds, then the supernatant was removed and the worm pellet was washed again with 5 ml PBS. Then the supernatant was discarded except approximately 400 ul, to which 200 ul of 10% paraformaldehyde was added and then gently rocked for 60 minutes at room temperature. To remove the paraformaldehyde, worms were centrifuged at 1500 g for 30 sec, then washed 1× with 5 ml PBS, centrifuged and supernatant removed except 400 ul, to which 600 ul of 100% isopropanol was added and mixed by inverting the tube and incubated for 15 minutes at room temperature. After centrifugation, the isopropanol was removed, then 1 ml of 60% filtered OilRed (4 vol ddH2O and 6 vol of OilRed stock (OilRed stock: dilute 0.35 g OilRed O (Sigma Cat #0-0625, FW 408.5) in 100 ml 100% isopropanol, stirred overnight, then filtered (0.2 um) and stored at room temperature), let stand for 15 to 20 min and filter with 0.2 um) was added. Worms were rotated on shaker overnight at room temperature and protected from light. Next day, the worms were centrifuged at 1200 g for 30 seconds, the dye was removed, and worms were washed 4 times with ddH2O. At last washing step, 2 ml of ddH2O was added and worms were counted under microscope in 3×20 ul drops. The worm number was multiplied by 100 to calculate the total worm number for normalization of the absorbance data. Then worm solution was centrifuged again, supernatant removed and 300 ul of 100% isopropanol was added to elute the OilRed. 100 ul aliquots of OilRed-isopropanol in transferred to 96-well plate and the absorbance was measured at 500 nm.

HepG2 liver cells = experiment: Lipid accumulation (Oil Red Staining) in HepG2 liver cells induced with high glucose plus insulin; assay type: cell-based; settings: 48 hours
Protocol: Cell Culture: HepG2 liver cells were seeded with 80,000 cells per well on 24-well tissue culture plates in low glucose (5 mM) DMEM containing 10% FBS and antibiotics. After 24 hours of attachment, lipid accumulation was induced by incubating cells with high glucose (25 mM) DMEM (10% FBS, 1% Pen-Strep) plus 100 nM insulin for 48 hours. Cells were then treated with indicated concentrations of Compound 2 for an additional 48 hours.
as §1
as §2, with “HepG2 liver cells” for “3T3L1 adipocytes”, “48” for “72”, “HepG2” for “adipocytes”

## CC(C)C[C@@H]1NC(N=C(N)N)=NC1=O [Compound 2]
C2C12 muscle cells; 10 nM, 24 hour treatment, prior to palmitate injection, p=0.002
  increase of the baseline oxygen consumption rate (area under the curve): 60%
C2C12 muscle cells; after palmitate injection (200 μM), p=0.002
  further increase of palmitate-induced oxygen consumption vs control: ~75%
C2C12 muscle cells; concentrations in excess of luM (not shown)
  effect on baseline and palmitate-stimulated oxygen consumption rate (OCR): no effect
C2C12 muscle cells; dose-responsive only at 0-10 nM
  dose-response of OCR effects (area under the curve): plateaued between 10 and 100 nM
C2C12 muscle cells; higher concentrations (>100 nM)
  dose-response on baseline and palmitate-stimulated OCR: diminishing responses
3T3L1 adipocytes; 1 nM, 500 nm
  Oil Red absorbance (FIG. 11): approximately 0.57
3T3L1 adipocytes; 10 nM, 500 nm
  Oil Red absorbance (FIG. 11): approximately 0.58
3T3L1 adipocytes; 50 nM, 500 nm
  Oil Red absorbance (FIG. 11): approximately 0.53
3T3L1 adipocytes; 100 nM, 500 nm
  Oil Red absorbance (FIG. 11): approximately 0.54
3T3L1 adipocytes; 200 nM, 500 nm
  Oil Red absorbance (FIG. 11): approximately 0.51
3T3L1 adipocytes; 350 nM, 500 nm
  Oil Red absorbance (FIG. 11): approximately 0.55
3T3L1 adipocytes; 500 nM
  Oil Red absorbance (FIG. 11): approximately 0.68
3T3L1 adipocytes; 50 to 350 nM, p<0.05
  reduction in lipid accumulation (plateau effect): up to 23%
3T3L1 adipocytes; higher concentration (500 nM)
  lipid reducing effect: lost
C. elegans; 10 nM
  lipid accumulation, fold change of control (FIG. 12): approximately 0.45 fold change
C. elegans; 100 nM
  lipid accumulation, microscopic images (FIG. 13B): significant reduction
  lipid accumulation, fold change of control (FIG. 12): approximately 0.35 fold change
C. elegans; 100 nM, L1 stage to adulthood (3 days), p<0.05
  reduction in lipid accumulation: 60%
HepG2 liver cells; HepG2, all tested concentrations (1 nM to 10 uM)
  effect on fat accumulation: significantly reduced
HepG2 liver cells; HepG2, high glucose (25 mM) DMEM plus 100 nM insulin, 10 nM, p<0.025
  reduction of fat accumulation (highest effect): up to 40%
